Laboratory results as given in paper PMC12706778, “Humanization of Drug Metabolism in the Plasmodium berghei Mouse Model for Antimalarial Drug Discovery” (ACS Infectious Diseases, 2025).

Assays:
[1] = Intrinsic clearance with human hepatic microsomes; assay type: in vitro ADME; conditions: for metabolism with hepatic microsomes (in words): stated for hepatic microsomes from human, 8HUM and WT mice together
Description: (§1) Microsomes from 8HUM were prepared as described previously. Compounds were added at 0.5 μM (metabolic stability) or 5 μM (metabolite profiling) to microsomes in buffer (0.5 mg/mL protein in 50 mM potassium phosphate, pH 7.4), and reactions were initiated with the addition of excess NADPH (final concentration 0.8 mg/mL). Aliquots (50 μL) were taken immediately and at 3, 6, 9, 15, and 30 min, mixed with two volumes of acetonitrile containing internal standard (donepezil, 50 ng/mL), and kept on ice. After all samples were collected, 250 μL of 20% acetonitrile was added to each sample and samples were then centrifuged for 10 min at 3000g at ambient temperature. LC–MS/MS analysis was carried out immediately.
(§2) Microsomal incubation samples were analyzed on an Acquity UPLC system coupled to a Xevo TQS-Micro, operated using MassLynx software version 4.2 (Waters, Wilmslow, UK). […] The mass spectrometer was operated with electrospray ionization in positive mode, with a capillary voltage of 0.8 kV, a desolvation temperature of 500 °C (in vitro samples) or 600 °C (PK samples), a desolvation gas flow at 1000 L/h, a cone gas flow at 150 L/h, and a source temperature at 150 °C. Multiple reaction monitoring transitions, cone voltages, and collision energies were optimized for each compound using QuanOptimise software.
(§3) Raw LC–MS/MS data were exported to XLfit (IDBS, Woking, UK) for calculation of the exponential decay rate constant (k) from the ratio of the peak area of the test compound to the internal standard at each time point. Intrinsic clearance (CLint) was calculated by multiplying k by the incubation volume and […]. […] Lower and upper limits of quantitation were 0.011 and 0.1 mL/min/mg, respectively. Values were transferred to RStudio (Posit, Boston, MA, USA) for visualization using the ggplot2 package.

[2] = Intrinsic clearance with 8HUM mouse hepatic microsomes; assay type: in vitro ADME
Description: as §1
(§4) Microsomal incubation samples were analyzed on an Acquity UPLC system coupled to a Xevo TQS-Micro, operated using MassLynx software version 4.2 (Waters, Wilmslow, UK). […]
as §3, with “Values were transferred to RStudio (Posit, Boston, MA, USA) for visualization using the ggplot2 package.” left out

[3] = Intrinsic clearance with WT mouse hepatic microsomes; assay type: in vitro ADME; conditions: WT mouse microsomes versus human or 8HUM
Description: as §1, §4
as §3, with “Values were transferred to RStudio (Posit, Boston, MA, USA) for visualization using the ggplot2 package.” left out

[4] = Oral pharmacokinetics in whole blood of WT mice; assay type: in vivo; conditions: female, mouse; for Tmax: WT, po; for blood plasma ratio: WT mice, blood and plasma samples from same animals at identical timepoints, read-out: B/P (blood-to-plasma ratio)
Description: (§5) Three female mice were used in each pharmacokinetic experiment. Dose levels and schedules were as described in the text. All compounds were administered as fine suspensions in a vehicle of 1% methylcellulose and 0.5% Tween80 in water at a dose volume of 5 mL/kg. Serial blood samples (10 μL) were taken from the tail vein at the time points shown, diluted into 9 volumes of Milli-Q water, and stored at −20 °C prior to bioanalysis. PK parameters were determined by noncompartmental analysis using the Phoenix WinNonlin version 8.3.1.5014 (Certara).
as §2
(§6) On the day of sample analysis, calibration standards (CSs) and quality controls (QCs) were prepared from separate compound aliquots. Compounds were dissolved in DMSO and spiked into diluted blank blood as a control matrix, prior to extraction with three volumes of acetonitrile containing the internal standard (donepezil at 5 ng/mL), in parallel with PK samples. Concentration of the drug in samples was determined by interpolation onto CS values using TargetLynx (Waters). Acceptance criteria of the bioanalytical method included a CS accuracy of ±20% of nominal (theoretical) concentration across the range of interest. […] QCs at low-, medium-, and high- concentration levels were injected throughout the analytical run, with an acceptance criterion of 66% of injected samples being within ±20% of nominal concentrations. […] Sample carryover was determined in a blank injection immediately following the injection of the top CS. Carryover was deemed accepted when the test compound response in the blank was <1% of that in the top calibration sample.

[5] = Oral pharmacokinetics in whole blood of 8HUM mice; assay type: in vivo, mouse; conditions: for Tmax / blood plasma ratio: female, mouse; for Tmax: 8HUM, po; for blood plasma ratio: blood and plasma samples from same animals at identical timepoints, read-out: B/P (blood-to-plasma ratio); for AUCinf higher in 8HUM than in WT mice: oral dose, 8HUM versus WT
Description: as §5, §2, §6

Plasmodium berghei = test: Short course P. berghei infection efficacy in 8HUM mice; assay type: in vivo, Plasmodium berghei ANKA in 8HUM mice; conditions: 8HUM infected with 0.3 × 10^6 P. berghei infected erythrocytes; single dose 7 mg/kg 24 h after infection; untreated approximately 10% after 5 days; n = 3
Description: Donor mice (CD-1) were intraperitoneally administered a solution containing cryopreserved erythrocytes infected with P. berghei ANKA (200 μL at approximately 4% parasitemia). […] Piperaquine (Sigma, C7874) was administered at 7 mg/kg in aqueous vehicle containing 1% (w/v) methylcellulose and 0.5% (w/v) Tween 80. Peripheral blood samples were collected daily, and parasitemia was determined as described.

[6] = chloroquine and primaquine 5 mg/kg, quinine 20 mg/kg

CCN(CC)Cc1cc(Nc2ccnc3cc(Cl)ccc23)ccc1O [Amodiaquine, amodiaquine]
metabolism by human liver microsomes (in words) [1]: rapidly metabolized | stability in 8HUM microsomes compared with human [2]: much more stable

CO[C@H]1O[C@@H]2O[C@@]3(C)CC[C@H]4[C@H](C)CC[C@@H]([C@H]1C)[C@@]24OO3 [Artemether, artemether]
metabolism by human liver microsomes (in words) [1]: rapidly metabolized

C[C@H]1[C@H](OC(=O)CCC(=O)O)O[C@@H]2O[C@@]3(C)CC[C@H]4[C@H](C)CC[C@@H]1[C@@]24OO3 [Artesunate, artesunate]
metabolism by human liver microsomes (in words) [1]: rapidly metabolized

O=C1C(O)=C([C@H]2CC[C@H](c3ccc(Cl)cc3)CC2)C(=O)c2ccccc21 [Atovaquone, atovaquone]
metabolism with hepatic microsomes (in words) [1]: Very little metabolism

CCN(CC)CCCC(C)Nc1ccnc2cc(Cl)ccc12 (centres unmarked) [Chloroquine, chloroquine]
stability with WT microsomes compared with human or 8HUM microsomes [3]: less stable | Tmax ([4]; in vivo): 2 h | blood plasma ratio ([4]; in vivo): 3.03 ± 0.38 | Tmax ([5]; in vivo): 3 ± 2.6 h | blood plasma ratio ([5]; in vivo, 8HUM mice): 3.88 ± 1.64 | AUCinf higher in 8HUM than in WT mice [5, 6]: 2.8 fold

C[C@H]1c2cccc(O)c2C(=O)C2=C(O)[C@]3(O)C(=O)C(C(N)=O)=C(O)[C@@H](N(C)C)[C@@H]3[C@@H](O)[C@@H]21 [Doxycycline, doxycycline]
metabolism with hepatic microsomes (in words) [1]: Very little metabolism

OC(c1cc(C(F)(F)F)nc2c(C(F)(F)F)cccc12)C1CCCCN1 (centres unmarked) [Mefloquine, mefloquine]
metabolism with hepatic microsomes (in words) [1]: Very little metabolism | Tmax ([4]; whole blood): 4.7 ± 1.2 h | blood plasma ratio ([4]; whole blood and plasma, oral): 1.44 ± 0.07 | Tmax ([5]; whole blood): 7.3 ± 1.2 h | blood plasma ratio ([5]; whole blood and plasma, oral, 8HUM mice): 1.41 ± 0.16

COc1cc(NC(C)CCCN)c2ncccc2c1 (centres unmarked) [Primaquine, primaquine]
stability with WT microsomes compared with human or 8HUM microsomes [3]: less stable | Tmax ([4]; in vivo): 0.6 ± 0.2 h | blood plasma ratio ([4]; in vivo): 1.05 ± 0.19 | C max ([5]; 8HUM mice, whole blood, PO, chloroquine and primaquine 5 mg/kg, quinine 20 mg/kg, n = 3): 534 ± 37 ng/mL | Tmax ([5]; in vivo): 0.8 ± 0.2 h | blood plasma ratio ([5]; in vivo, 8HUM mice): 1.01 ± 0.03 | AUCinf higher in 8HUM than in WT mice [5, 6]: 22 fold

[H]/N=C(\N/C(=N/[H])Nc1ccc(Cl)cc1)NC(C)C [Proguanil, proguanil]
metabolism with hepatic microsomes (in words) [1]: Very little metabolism

CCc1nc(N)nc(N)c1-c1ccc(Cl)cc1 [Pyrimethamine, pyrimethamine]
metabolism with hepatic microsomes (in words) [1]: Very little metabolism

C=C[C@H]1C[N@@]2CC[C@H]1C[C@H]2[C@H](O)c1ccnc2ccc(OC)cc12 [Quinine, quinine]
Tmax ([4]; whole blood): 0.3 ± 0.1 h | Tmax ([5]; whole blood): 10.7 ± 11.7 h

Clc1ccc2c(N3CCN(CCCN4CCN(c5ccnc6cc(Cl)ccc56)CC4)CC3)ccnc2c1 [piperaquine]
parasitemia after treatment (Plasmodium berghei): almost undetectable levels
